# Data as given in the supplement of paper PMC10307832.
# Tests used:
# Test in all cases: relative viability (nuclei count vs DMSO), 5 days (fraction); higher = more cells survive
# NCI-H441 = test system: NCI-H441
# Outline: (§1)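 Nuclei were stained with Hoechst during a one-step fixation (final 0.05% Triton X-100, 1% formaldehyde, 1 ug/ml Hoechst) carried out 5 days after dosing, then counted on 4× images. The cells, lung cancer lines in 1536-well plates, had been dosed by pin tool the day after seeding with one drug alone or a fixed anchor-drug dose plus five library-drug doses (not always all listed) in √10 steps. Relative viability is the nuclei count in treated wells divided by that in vehicle wells, and each value is the median of duplicate plates.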
# COR-L23 = test system: COR-L23
# Outline: as §1
# NCI-H2170 = test system: NCI-H2170
# Outline: as §1
# NCI-H520 = test system: NCI-H520
# Outline: as §1
# NCI-H2347 = test system: NCI-H2347
# Outline: as §1
# EPLC-272H = test system: EPLC-272H
# Outline: as §1
# UMC-11 = test system: UMC-11
# Outline: as §1
# NCI-H3122 = test system: NCI-H3122
# Outline: as §1
# SW 900 = test system: SW 900
# Outline: as §1
# H3255 = test system: H3255
# Outline: as §1
# HCC-15 = test system: HCC-15
# Outline: as §1
# NCI-H1650 = test system: NCI-H1650
# Outline: as §1
# PC-14 = test system: PC-14
# Outline: as §1
# NCI-H2023 = test system: NCI-H2023
# Outline: as §1
# NCI-H322M = test system: NCI-H322M
# Outline: as §1
# NCI-H2405 = test system: NCI-H2405
# Outline: as §1
# NCI-H1734 = test system: NCI-H1734
# Outline: as §1
# LOU-NH91 = test system: LOU-NH91
# Outline: as §1
# 201T = test system: 201T
# Outline: as §1
# NCI-H647 = test system: NCI-H647
# Outline: as §1
# NCI-H1793 = test system: NCI-H1793
# Outline: as §1
compound,measurement,setting,value
Nc1ccn([C@@H]2O[C@H](CO)[C@@H](O)[C@@H]2O)c(=O)n1 [Cytarabine] + CC(=O)c1c(C)c2cnc(Nc3ccc(N4CCNCC4)cn3)nc2n(C2CCCC2)c1=O [Palbociclib] (partner 0.5 µM),relative viability,NCI-H441; first compound 0.005 µM,0.198
same,relative viability,NCI-H441; first compound 0.01581 µM,0.197
same,relative viability,NCI-H441; first compound 0.05 µM,0.168
same,relative viability,NCI-H441; first compound 0.1581 µM,0.139
same,relative viability,NCI-H441; first compound 0.5 µM,0.17
same,relative viability,COR-L23; first compound 0.005 µM,0.203
same,relative viability,COR-L23; first compound 0.01581 µM,0.228
same,relative viability,COR-L23; first compound 0.05 µM,0.176
same,relative viability,COR-L23; first compound 0.1581 µM,0.115
same,relative viability,COR-L23; first compound 0.5 µM,0.122
same,relative viability,NCI-H2170; first compound 0.005 µM,0.369
same,relative viability,NCI-H2170; first compound 0.01581 µM,0.266
same,relative viability,NCI-H2170; first compound 0.05 µM,0.26
same,relative viability,NCI-H2170; first compound 0.1581 µM,0.177
same,relative viability,NCI-H2170; first compound 0.5 µM,0.186
same,relative viability,NCI-H520; first compound 0.005 µM,0.234
same,relative viability,NCI-H520; first compound 0.01581 µM,0.223
same,relative viability,NCI-H520; first compound 0.05 µM,0.199
same,relative viability,NCI-H520; first compound 0.1581 µM,0.177
same,relative viability,NCI-H520; first compound 0.5 µM,0.201
same,relative viability,NCI-H2347; first compound 0.005 µM,0.416
same,relative viability,NCI-H2347; first compound 0.01581 µM,0.433
same,relative viability,NCI-H2347; first compound 0.05 µM,0.413
same,relative viability,NCI-H2347; first compound 0.1581 µM,0.386
same,relative viability,NCI-H2347; first compound 0.5 µM,0.407
same,relative viability,EPLC-272H; first compound 0.005 µM,0.319
same,relative viability,EPLC-272H; first compound 0.01581 µM,0.29
same,relative viability,EPLC-272H; first compound 0.05 µM,0.281
same,relative viability,EPLC-272H; first compound 0.1581 µM,0.249
same,relative viability,EPLC-272H; first compound 0.5 µM,0.219
same,relative viability,UMC-11; first compound 0.005 µM,0.371
same,relative viability,UMC-11; first compound 0.01581 µM,0.304
same,relative viability,UMC-11; first compound 0.05 µM,0.263
same,relative viability,UMC-11; first compound 0.1581 µM,0.236
same,relative viability,UMC-11; first compound 0.5 µM,0.219
same,relative viability,NCI-H3122; first compound 0.005 µM,0.188
same,relative viability,NCI-H3122; first compound 0.01581 µM,0.389
same,relative viability,NCI-H3122; first compound 0.05 µM,0.122
same,relative viability,NCI-H3122; first compound 0.1581 µM,0.126
same,relative viability,NCI-H3122; first compound 0.5 µM,0.113
same,relative viability,SW 900; first compound 0.005 µM,0.536
same,relative viability,SW 900; first compound 0.01581 µM,0.515
same,relative viability,SW 900; first compound 0.05 µM,0.451
same,relative viability,SW 900; first compound 0.1581 µM,0.362
same,relative viability,SW 900; first compound 0.5 µM,0.292
same,relative viability,H3255; first compound 0.005 µM,0.33
same,relative viability,H3255; first compound 0.01581 µM,0.32
same,relative viability,H3255; first compound 0.05 µM,0.281
same,relative viability,H3255; first compound 0.1581 µM,0.265
same,relative viability,H3255; first compound 0.5 µM,0.261
same,relative viability,HCC-15; first compound 0.005 µM,0.743
same,relative viability,HCC-15; first compound 0.01581 µM,0.673
same,relative viability,HCC-15; first compound 0.05 µM,0.835
same,relative viability,HCC-15; first compound 0.1581 µM,0.671
same,relative viability,HCC-15; first compound 0.5 µM,0.514
same,relative viability,NCI-H1650; first compound 0.005 µM,0.317
same,relative viability,NCI-H1650; first compound 0.01581 µM,0.319
same,relative viability,NCI-H1650; first compound 0.05 µM,0.318
same,relative viability,NCI-H1650; first compound 0.1581 µM,0.163
same,relative viability,NCI-H1650; first compound 0.5 µM,0.186
same,relative viability,PC-14; first compound 0.005 µM,0.432
same,relative viability,PC-14; first compound 0.01581 µM,0.366
same,relative viability,PC-14; first compound 0.05 µM,0.365
same,relative viability,PC-14; first compound 0.1581 µM,0.0885
same,relative viability,PC-14; first compound 0.5 µM,0.0651
same,relative viability,NCI-H2023; first compound 0.005 µM,0.378
same,relative viability,NCI-H2023; first compound 0.01581 µM,0.221
same,relative viability,NCI-H2023; first compound 0.05 µM,0.129
same,relative viability,NCI-H2023; first compound 0.1581 µM,0.0971
same,relative viability,NCI-H2023; first compound 0.5 µM,0.088
same,relative viability,NCI-H322M; first compound 0.005 µM,0.414
same,relative viability,NCI-H322M; first compound 0.01581 µM,0.492
same,relative viability,NCI-H322M; first compound 0.05 µM,0.42
same,relative viability,NCI-H322M; first compound 0.1581 µM,0.385
same,relative viability,NCI-H322M; first compound 0.5 µM,0.383
same,relative viability,NCI-H2405; first compound 0.005 µM,0.518
same,relative viability,NCI-H2405; first compound 0.01581 µM,0.449
same,relative viability,NCI-H2405; first compound 0.05 µM,0.367
same,relative viability,NCI-H2405; first compound 0.1581 µM,0.275
same,relative viability,NCI-H2405; first compound 0.5 µM,0.234
same,relative viability,NCI-H1734; first compound 0.005 µM,0.305
same,relative viability,NCI-H1734; first compound 0.01581 µM,0.214
same,relative viability,NCI-H1734; first compound 0.05 µM,0.237
same,relative viability,NCI-H1734; first compound 0.1581 µM,0.153
same,relative viability,NCI-H1734; first compound 0.5 µM,0.155
same,relative viability,LOU-NH91; first compound 0.005 µM,0.478
same,relative viability,LOU-NH91; first compound 0.01581 µM,0.54
same,relative viability,LOU-NH91; first compound 0.05 µM,0.562
same,relative viability,LOU-NH91; first compound 0.1581 µM,0.432
same,relative viability,LOU-NH91; first compound 0.5 µM,0.412
same,relative viability,201T; first compound 0.005 µM,0.369
same,relative viability,201T; first compound 0.01581 µM,0.335
same,relative viability,201T; first compound 0.05 µM,0.356
same,relative viability,201T; first compound 0.1581 µM,0.271
same,relative viability,201T; first compound 0.5 µM,0.31
same,relative viability,NCI-H647; first compound 0.005 µM,0.316
same,relative viability,NCI-H647; first compound 0.01581 µM,0.206
same,relative viability,NCI-H647; first compound 0.05 µM,0.207
same,relative viability,NCI-H647; first compound 0.1581 µM,0.0933
same,relative viability,NCI-H647; first compound 0.5 µM,0.0634
same,relative viability,NCI-H1793; first compound 0.005 µM,0.341
same,relative viability,NCI-H1793; first compound 0.01581 µM,0.267
same,relative viability,NCI-H1793; first compound 0.05 µM,0.268
same,relative viability,NCI-H1793; first compound 0.1581 µM,0.228
same,relative viability,NCI-H1793; first compound 0.5 µM,0.262
